Data taken from ChEMBL document CHEMBL3885881, “DrugMatrix”.

Species on record: Rattus norvegicus
Assay: DrugMatrix - Regimen: Daily Repeat
Format: toxicity, organism-based, Sprague-Dawley
Set-up: regimen Daily Repeat, gender Male, age 6-8 weeks
Conditions: in vivo, sc, route subcutaneous, […]; for ABSOLUTE BASOPHIL / ABSOLUTE EOSINOPHIL / ABSOLUTE LYMPHOCYTE / ABSOLUTE MONOCYTE / ABSOLUTE SEGMENTED NEUTROPHIL / BASOPHIL / EOSINOPHIL / ERYTHROCYTE COUNT / HEMATOCRIT / HEMOGLOBIN / LEUKOCYTE COUNT / LYMPHOCYTE / MEAN CORPUSCULAR HEMOGLOBIN / MEAN CORPUSCULAR HEMOGLOBIN CONCENTRATION / MEAN CORPUSCULAR VOLUME / MONOCYTE / NEUTROPHIL / NUCLEATED RED BLOOD CELLS / PLATELET COUNT: tissue Blood; for ALANINE AMINOTRANSFERASE / ALBUMIN / ALKALINE PHOSPHATASE / ASPARTATE AMINOTRANSFERASE / BLOOD UREA NITROGEN / CARBON DIOXIDE / CHLORIDE / CHOLESTEROL / CREATINE PHOSPHOKINASE / CREATININE / GLUCOSE / LACTATE DEHYDROGENASE / LIPASE / PHOSPHORUS / POTASSIUM / SODIUM / TOTAL BILIRUBIN / TOTAL PROTEIN / URIC ACID: tissue Plasma
[1] = 0.4 mg/kg, 72 h, dose level Low, time 3 day
[2] = 0.4 mg/kg, 120 h, dose level Low, time 5 day
[3] = 4 mg/kg, 72 h, dose level High, time 3 day
[4] = 4 mg/kg, 120 h, dose level High, time 5 day

COc1cc([C@@H]2c3cc4c(cc3[C@H](O)[C@H]3COC(=O)[C@H]23)OCO4)cc(OC)c1OC [PODOFILOX]
ABSOLUTE BASOPHIL [1]: 0 CELLS/uL
ABSOLUTE EOSINOPHIL [1]: 46.67 CELLS/uL
ABSOLUTE LYMPHOCYTE [1]: 10326.67 CELLS/uL
ABSOLUTE MONOCYTE [1]: 246 CELLS/uL
ABSOLUTE SEGMENTED NEUTROPHIL [1]: 1114 CELLS/uL
BASOPHIL [1]: 0%
EOSINOPHIL [1]: 0.33%
ERYTHROCYTE COUNT [1]: 5.36 x10E6/uL
HEMATOCRIT [1]: 33.43%
HEMOGLOBIN [1]: 12.37 G/DL
LEUKOCYTE COUNT [1]: 11.73 x10E3/uL
LYMPHOCYTE [1]: 88.33%
MEAN CORPUSCULAR HEMOGLOBIN [1]: 23.07 pg
MEAN CORPUSCULAR HEMOGLOBIN CONCENTRATION [1]: 37 G/DL
MEAN CORPUSCULAR VOLUME [1]: 62.43 fL
MONOCYTE [1]: 2%
NEUTROPHIL [1]: 9.33%
NUCLEATED RED BLOOD CELLS [1]: 0 /100WBC
PLATELET COUNT [1]: 1280.67 x10E3/uL
ALANINE AMINOTRANSFERASE [1]: 44.33 u/L
ALBUMIN [1]: 3.33 G/DL
ALKALINE PHOSPHATASE [1]: 320.67 u/L
ASPARTATE AMINOTRANSFERASE [1]: 77.67 u/L
BLOOD UREA NITROGEN [1]: 16.33 mg/dL
CARBON DIOXIDE [1]: 27.33 mmol/L
CHLORIDE [1]: 104.67 MEQ/L
CHOLESTEROL [1]: 67.33 mg/dL
CREATINE PHOSPHOKINASE [1]: 222.67 u/L
CREATININE [1]: 0.2 mg/dL
GLUCOSE [1]: 162 mg/dL
LACTATE DEHYDROGENASE [1]: 146.67 u/L
LIPASE [1]: 8 u/L
PHOSPHORUS [1]: 12.87 mg/dL
POTASSIUM [1]: 6.48 MEQ/L
SODIUM [1]: 146.23 MEQ/L
TOTAL BILIRUBIN [1]: 0.2 mg/dL
TOTAL PROTEIN [1]: 5.23 G/DL
URIC ACID [1]: 1.53 mg/dL
ABSOLUTE BASOPHIL [2]: 0 CELLS/uL
ABSOLUTE EOSINOPHIL [2]: 0 CELLS/uL
ABSOLUTE LYMPHOCYTE [2]: 4413.33 CELLS/uL
ABSOLUTE MONOCYTE [2]: 17.67 CELLS/uL
ABSOLUTE SEGMENTED NEUTROPHIL [2]: 1569 CELLS/uL
BASOPHIL [2]: 0%
EOSINOPHIL [2]: 0%
ERYTHROCYTE COUNT [2]: 5.41 x10E6/uL
HEMATOCRIT [2]: 33.67%
HEMOGLOBIN [2]: 12.57 G/DL
LEUKOCYTE COUNT [2]: 6 x10E3/uL
LYMPHOCYTE [2]: 73.67%
MEAN CORPUSCULAR HEMOGLOBIN [2]: 23.23 pg
MEAN CORPUSCULAR HEMOGLOBIN CONCENTRATION [2]: 37.33 G/DL
MEAN CORPUSCULAR VOLUME [2]: 62.3 fL
MONOCYTE [2]: 0.33%
NEUTROPHIL [2]: 26%
NUCLEATED RED BLOOD CELLS [2]: 0.67 /100WBC
PLATELET COUNT [2]: 1853.33 x10E3/uL
ALANINE AMINOTRANSFERASE [2]: 44.33 u/L
ALBUMIN [2]: 4.03 G/DL
ALKALINE PHOSPHATASE [2]: 296.33 u/L
ASPARTATE AMINOTRANSFERASE [2]: 117 u/L
BLOOD UREA NITROGEN [2]: 19.33 mg/dL
CARBON DIOXIDE [2]: 26 mmol/L
CHLORIDE [2]: 105.67 MEQ/L
CHOLESTEROL [2]: 82.67 mg/dL
CREATINE PHOSPHOKINASE [2]: 843.33 u/L
CREATININE [2]: 0.2 mg/dL
GLUCOSE [2]: 187.33 mg/dL
LACTATE DEHYDROGENASE [2]: 167.67 u/L
LIPASE [2]: 8.67 u/L
PHOSPHORUS [2]: 11.4 mg/dL
POTASSIUM [2]: 6.97 MEQ/L
SODIUM [2]: 148.4 MEQ/L
TOTAL BILIRUBIN [2]: 0.1 mg/dL
TOTAL PROTEIN [2]: 6.7 G/DL
URIC ACID [2]: 2.73 mg/dL
ABSOLUTE BASOPHIL [3]: 0 CELLS/uL
ABSOLUTE EOSINOPHIL [3]: 70.67 CELLS/uL
ABSOLUTE LYMPHOCYTE [3]: 10536.33 CELLS/uL
ABSOLUTE MONOCYTE [3]: 257.67 CELLS/uL
ABSOLUTE SEGMENTED NEUTROPHIL [3]: 768.67 CELLS/uL
BASOPHIL [3]: 0%
EOSINOPHIL [3]: 0.67%
ERYTHROCYTE COUNT [3]: 4.67 x10E6/uL
HEMATOCRIT [3]: 29.03%
HEMOGLOBIN [3]: 11 G/DL
LEUKOCYTE COUNT [3]: 11.63 x10E3/uL
LYMPHOCYTE [3]: 90.33%
MEAN CORPUSCULAR HEMOGLOBIN [3]: 23.63 pg
MEAN CORPUSCULAR HEMOGLOBIN CONCENTRATION [3]: 37.93 G/DL
MEAN CORPUSCULAR VOLUME [3]: 62.43 fL
MONOCYTE [3]: 2.33%
NEUTROPHIL [3]: 6.67%
NUCLEATED RED BLOOD CELLS [3]: 0.67 /100WBC
PLATELET COUNT [3]: 1479.33 x10E3/uL
ALANINE AMINOTRANSFERASE [3]: 36 u/L
ALBUMIN [3]: 3.27 G/DL
ALKALINE PHOSPHATASE [3]: 238.33 u/L
ASPARTATE AMINOTRANSFERASE [3]: 81 u/L
BLOOD UREA NITROGEN [3]: 15.33 mg/dL
CARBON DIOXIDE [3]: 22.67 mmol/L
CHLORIDE [3]: 105.67 MEQ/L
CHOLESTEROL [3]: 61 mg/dL
CREATINE PHOSPHOKINASE [3]: 371.33 u/L
CREATININE [3]: 0.17 mg/dL
GLUCOSE [3]: 145 mg/dL
LACTATE DEHYDROGENASE [3]: 371.33 u/L
LIPASE [3]: 7.67 u/L
PHOSPHORUS [3]: 9.1 mg/dL
POTASSIUM [3]: 6.96 MEQ/L
SODIUM [3]: 144.97 MEQ/L
TOTAL BILIRUBIN [3]: 0.17 mg/dL
TOTAL PROTEIN [3]: 5.3 G/DL
URIC ACID [3]: 1.73 mg/dL
ABSOLUTE BASOPHIL [4]: 0 CELLS/uL
ABSOLUTE EOSINOPHIL [4]: 0 CELLS/uL
ABSOLUTE LYMPHOCYTE [4]: 6143.67 CELLS/uL
ABSOLUTE MONOCYTE [4]: 159 CELLS/uL
ABSOLUTE SEGMENTED NEUTROPHIL [4]: 330.67 CELLS/uL
BASOPHIL [4]: 0%
EOSINOPHIL [4]: 0%
ERYTHROCYTE COUNT [4]: 5.45 x10E6/uL
HEMATOCRIT [4]: 32.83%
HEMOGLOBIN [4]: 12.27 G/DL
LEUKOCYTE COUNT [4]: 6.63 x10E3/uL
LYMPHOCYTE [4]: 93%
MEAN CORPUSCULAR HEMOGLOBIN [4]: 22.5 pg
MEAN CORPUSCULAR HEMOGLOBIN CONCENTRATION [4]: 37.37 G/DL
MEAN CORPUSCULAR VOLUME [4]: 60.13 fL
MONOCYTE [4]: 2.33%
NEUTROPHIL [4]: 4.67%
NUCLEATED RED BLOOD CELLS [4]: 0 /100WBC
PLATELET COUNT [4]: 878 x10E3/uL
ALANINE AMINOTRANSFERASE [4]: 45.67 u/L
ALBUMIN [4]: 3.57 G/DL
ALKALINE PHOSPHATASE [4]: 214.33 u/L
ASPARTATE AMINOTRANSFERASE [4]: 96.33 u/L
BLOOD UREA NITROGEN [4]: 18 mg/dL
CARBON DIOXIDE [4]: 26.5 mmol/L
CHLORIDE [4]: 104.5 MEQ/L
CHOLESTEROL [4]: 69.5 mg/dL
CREATINE PHOSPHOKINASE [4]: 269.67 u/L
CREATININE [4]: 0.18 mg/dL
GLUCOSE [4]: 163 mg/dL
LACTATE DEHYDROGENASE [4]: 182.67 u/L
LIPASE [4]: 8 u/L
PHOSPHORUS [4]: 11.1 mg/dL
POTASSIUM [4]: 5.69 MEQ/L
SODIUM [4]: 146.25 MEQ/L
TOTAL BILIRUBIN [4]: 0.1 mg/dL
TOTAL PROTEIN [4]: 5.8 G/DL
URIC ACID [4]: 1.35 mg/dL
